# According to ChEMBL document CHEMBL3044985, “Novel antitubercular diallyl/dibenzylthiosemicarbazones endowed with high activity toward multi-drug-resistant tuberculosis” (Med Chem Res, 2012):
# Test system: not listed separately
# Assay: Selectivity index, ratio of CC50 for african green monkey Vero cells to MIC for multidrug-resistant Mycobacterium tuberculosis
# Format: toxicity, cell-based
# Conditions: read-out: Selectivity Index
row,Structure (SMILES),selectivity ratio
1,O=[N+]([O-])c1ccc(/C=N\NC(=S)N(Cc2ccccc2)Cc2ccccc2)o1,1320

# Test system: Mycobacterium tuberculosis
# Assay: Ratio of ethambutol MIC to compound MIC for multidrug-resistant Mycobacterium tuberculosis
# Format: functional
# Conditions: not given
row,Structure (SMILES),Ratio
1,O=[N+]([O-])c1ccc(/C=N\NC(=S)N(Cc2ccccc2)Cc2ccccc2)o1,314

# Test system: Mycobacterium tuberculosis
# Assay: Ratio of ofloxacin MIC to compound MIC for multidrug-resistant Mycobacterium tuberculosis
# Format: functional
# Conditions: not given
row,Structure (SMILES),Ratio
1,O=[N+]([O-])c1ccc(/C=N\NC(=S)N(Cc2ccccc2)Cc2ccccc2)o1,288

# Test system: Mycobacterium tuberculosis
# Assay: Ratio of rifampicin MIC to compound MIC for multidrug-resistant Mycobacterium tuberculosis
# Format: functional
# Conditions: not given
row,Structure (SMILES),Ratio
1,O=[N+]([O-])c1ccc(/C=N\NC(=S)N(Cc2ccccc2)Cc2ccccc2)o1,31

# Test system: Mycobacterium tuberculosis
# Assay: Ratio of isoniazid MIC to compound MIC for multidrug-resistant Mycobacterium tuberculosis
# Format: functional
# Conditions: not given
row,Structure (SMILES),Ratio
1,O=[N+]([O-])c1ccc(/C=N\NC(=S)N(Cc2ccccc2)Cc2ccccc2)o1,379

# Test system: Mycobacterium tuberculosis
# Assay: Antitubercular activity against multidrug-resistant Mycobacterium tuberculosis by NCCLS agar dilution method
# Format: functional
# Conditions: not given
row,Structure (SMILES),MIC [µM]
1,O=[N+]([O-])c1ccc(/C=N\NC(=S)N(Cc2ccccc2)Cc2ccccc2)cc1,0.98
2,C=CCN(CC=C)C(=S)N/N=C(/C)c1ccc(O)cc1,10.8
3,CC[C@@H](CO)NCCN[C@@H](CC)CO [ETHAMBUTOL],37.7
4,C=CCN(CC=C)C(=S)N/N=C(/C)c1ccc(F)cc1,5.35
5,O=[N+]([O-])c1ccccc1/C=N\NC(=S)N(Cc1ccccc1)Cc1ccccc1,0.98
6,C=CCN(CC=C)C(=S)N/N=C(/C)c1ccc([N+](=O)[O-])cc1,9.83
7,C=CCN(CC=C)C(=S)N/N=C(/C)c1ccccc1O,10.8
8,C=CCN(CC=C)C(=S)N/N=C\c1ccc([N+](=O)[O-])cc1,1.31
9,C=CCN(CC=C)C(=S)N/N=C(/C)c1ccccc1,11.4
10,C/C(=N/NC(=S)N(Cc1ccccc1)Cc1ccccc1)c1ccc(N)cc1,8.04
11,C/C(=N/NC(=S)N(Cc1ccccc1)Cc1ccccc1)c1ccccc1,4.17
12,C=CCN(CC=C)C(=S)NN=C(c1ccccc1)c1ccccc1,2.32
13,C=CCN(CC=C)C(=S)N/N=C\c1ccccc1[N+](=O)[O-],2.56
14,S=C(N/N=C\c1ccccc1)N(Cc1ccccc1)Cc1ccccc1,8.71
15,S=C(N/N=C\c1ccc(Cl)cc1)N(Cc1ccccc1)Cc1ccccc1,1.98
16,C=CCN(CC=C)C(=S)N/N=C\c1ccc([N+](=O)[O-])o1,0.67
17,S=C(NN=C(c1ccccc1)c1ccccc1)N(Cc1ccccc1)Cc1ccccc1,1.79
18,Cc1ccccc1/C=N\NC(=S)N(Cc1ccccc1)Cc1ccccc1,4.71
19,Oc1ccccc1/C=N\NC(=S)N(Cc1ccccc1)Cc1ccccc1,4.16
20,C=CCN(CC=C)C(=S)N/N=C\c1ccccc1C,5.7
21,C/C(=N/NC(=S)N(Cc1ccccc1)Cc1ccccc1)c1ccccc1O,8.03
22,CO[C@H]1/C=C/O[C@@]2(C)Oc3c(C)c(O)c4c(O)c(c(/C=N/N5CCN(C)CC5)c(O)c4c3C2=O)NC(=O)/C(C)=C\C=C\[C@H](C)[C@H](O)[C@@H](C)[C@@H](O)[C@@H](C)[C@H](OC(C)=O)[C@@H]1C [RIFAMPIN],3.79
23,O=[N+]([O-])c1ccc(/C=N\NC(=S)N(Cc2ccccc2)Cc2ccccc2)o1,0.12
24,C=CCN(CC=C)C(=S)N/N=C\c1ccc(Cl)cc1,2.65
25,NNC(=O)c1ccncc1 [ISONIAZID],45.6
26,C/C(=N/NC(=S)N(Cc1ccccc1)Cc1ccccc1)c1ccc(O)cc1,8.03
27,C/C(=N/NC(=S)N(Cc1ccccc1)Cc1ccccc1)c1ccc(F)cc1,3.98
28,C/C(=N/NC(=S)N(Cc1ccccc1)Cc1ccccc1)c1ccc([N+](=O)[O-])cc1,1.86
